According to ChEMBL document CHEMBL1201862, “PubChem BioAssay data set” (2004):
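Five concentrations, 48 hours, 96-well plates. At the GI50, growth is halved.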 The source made the active and inactive calls. Rule as the data show it: active = GI50 up to about 1.1 µM and inactive = higher.

Key:
Assay in all cases: growth of human tumour cells (NCI), 48 h
NCI-H226 = test system: NCI-H226
EKVX = test system: EKVX
SF-539 = test system: SF-539
OVCAR-5 = test system: OVCAR-5
OVCAR-3 = test system: OVCAR-3
CAKI-1 = test system: CAKI-1
786-0 = test system: 786-0
TK-10 = test system: TK-10
SK-MEL-2 = test system: SK-MEL-2
OVCAR-4 = test system: OVCAR-4
COLO 205 = test system: COLO 205
SK-MEL-5 = test system: SK-MEL-5
SW-620 = test system: SW-620
HCT-15 = test system: HCT-15
SF-295 = test system: SF-295
ACHN = test system: ACHN
HCT-116 = test system: HCT-116
A498 = test system: A498

Structure (SMILES) | GI50 (NCI-H226) | GI50 (EKVX) | GI50 (SF-539) | GI50 (OVCAR-5) | GI50 (OVCAR-3) | GI50 (CAKI-1) | GI50 (786-0) | GI50 (TK-10) | GI50 (SK-MEL-2) | GI50 (OVCAR-4) | GI50 (COLO 205) | GI50 (SK-MEL-5) | GI50 (SW-620) | GI50 (HCT-15) | GI50 (SF-295) | GI50 (ACHN) | GI50 (HCT-116) | GI50 (A498)
NC1=NC(=O)/C(=C/c2ccccc2[N+](=O)[O-])C(N)=N1 | > 100 µM (inactive) | > 100 µM (inactive) | > 100 µM (inactive) | > 100 µM (inactive) | > 100 µM (inactive) | > 100 µM (inactive) | > 100 µM (inactive) | > 100 µM (inactive) | > 100 µM (inactive) | > 100 µM (inactive) | > 100 µM (inactive) | > 100 µM (inactive) | > 100 µM (inactive) | > 100 µM | > 100 µM (inactive) | > 100 µM (inactive) | > 100 µM (inactive) | –
C=CCN(CC=C)CC(C(C)=O)C(c1ccccc1)c1c(O)c2ccccc2oc1=O (stereo not drawn) | 45.7 µM (inactive) | > 100 µM (inactive) | > 100 µM (inactive) | > 100 µM (inactive) | – | > 100 µM (inactive) | > 100 µM (inactive) | > 100 µM (inactive) | > 100 µM (inactive) | > 100 µM (inactive) | > 100 µM (inactive) | > 100 µM (inactive) | > 100 µM (inactive) | > 100 µM | 30.5 µM (inactive) | > 100 µM (inactive) | > 100 µM (inactive) | > 100 µM (inactive)
Nn1c(=O)n(Cc2ccccc2)n(-c2ccccc2)c1=O | > 100 µM (inactive) | – | > 100 µM (inactive) | > 100 µM (inactive) | > 100 µM (inactive) | > 100 µM (inactive) | > 100 µM (inactive) | > 100 µM (inactive) | > 100 µM (inactive) | > 100 µM (inactive) | – | > 100 µM (inactive) | > 100 µM (inactive) | – | > 100 µM (inactive) | > 100 µM (inactive) | > 100 µM (inactive) | > 100 µM (inactive)
CCOc1ccccc1NC(=O)CC1SC(Nc2ccc([N+](=O)[O-])cc2)=NC1=O (stereo not drawn) | 20.4 µM (inactive) | 27.5 µM (inactive) | – | 29.1 µM (inactive) | 14.5 µM (inactive) | – | 16.7 µM (inactive) | 25.4 µM (inactive) | 18.3 µM (inactive) | 11.6 µM (inactive) | 19.5 µM (inactive) | 16 µM (inactive) | 23.1 µM (inactive) | – | 18 µM (inactive) | 17.3 µM (inactive) | 15.3 µM (inactive) | –
O=C1CC(C(=O)N2CCCCC2)n2c(=O)n(-c3ccccc3)c(=O)n2C1 (stereo not drawn) | > 100 µM (inactive) | > 100 µM (inactive) | > 100 µM (inactive) | > 100 µM (inactive) | > 100 µM (inactive) | > 100 µM (inactive) | > 100 µM (inactive) | > 100 µM (inactive) | – | – | > 100 µM (inactive) | > 100 µM (inactive) | – | > 100 µM | > 100 µM (inactive) | > 100 µM (inactive) | > 100 µM (inactive) | –
Cc1ccc(C(=O)/C=C2\Nc3c(c(=O)oc4ccccc34)N=C2NC23CC4CC(CC(C4)C2)C3)cc1 | > 100 µM (inactive) | > 100 µM (inactive) | > 100 µM (inactive) | > 100 µM (inactive) | > 100 µM (inactive) | > 100 µM (inactive) | > 100 µM (inactive) | > 100 µM (inactive) | > 100 µM (inactive) | – | > 100 µM (inactive) | > 100 µM (inactive) | > 100 µM (inactive) | > 100 µM | – | > 100 µM (inactive) | > 100 µM (inactive) | –
CN(C)CCNC(=O)c1ccc(Cl)c2c(Nc3ccc(S(=O)(=O)N=C(N)N)cc3)c3ccccc3nc12 | 2.08 µM (inactive) | 11.4 µM (inactive) | 3.81 µM (inactive) | > 10 µM (inactive) | 12.4 µM (inactive) | – | 14.3 µM (inactive) | 12.6 µM (inactive) | 9.75 µM (inactive) | 1.87 µM (inactive) | 3.78 µM (inactive) | 8.04 µM (inactive) | 1.73 µM (inactive) | 5.02 µM | 3.16 µM (inactive) | 4.22 µM (inactive) | 3.9 µM (inactive) | –
C1=C2/CC[C@H](Sc3ccccc3)[C@H]2C2(CCCCC/1)OCCO2 | – | 18.5 µM (inactive) | 40.4 µM (inactive) | 29.5 µM (inactive) | 27.7 µM (inactive) | 20.2 µM (inactive) | 40.2 µM (inactive) | > 100 µM (inactive) | 16.9 µM (inactive) | – | 19.5 µM (inactive) | 29.6 µM (inactive) | 29 µM (inactive) | 28.2 µM | 37.8 µM (inactive) | 35.6 µM (inactive) | 39.8 µM (inactive) | –
COc1ccc(CN2C(=O)C(Cc3cc(OC)c(OC)c(C)c3OC)NC(=O)/C2=C/c2cc(OC)c(OC)c(C)c2OC)cc1 (stereo not drawn) | 18.7 µM (inactive) | 48.1 µM (inactive) | 45.6 µM (inactive) | 44.9 µM (inactive) | 26.1 µM (inactive) | – | 48.4 µM (inactive) | 33.5 µM (inactive) | 19.3 µM (inactive) | 30.6 µM (inactive) | 22.8 µM (inactive) | 18 µM (inactive) | 33.9 µM (inactive) | – | 43.5 µM (inactive) | 31.7 µM (inactive) | 26.4 µM (inactive) | 49.4 µM (inactive)
CC1=CP(=O)(OC(C)C)CC(C)=C1Cl (stereo not drawn) | > 100 µM (inactive) | > 100 µM (inactive) | 95.1 µM (inactive) | > 100 µM (inactive) | > 100 µM (inactive) | > 100 µM (inactive) | > 100 µM (inactive) | > 100 µM (inactive) | > 100 µM (inactive) | – | > 100 µM (inactive) | > 100 µM (inactive) | 70.5 µM (inactive) | – | > 100 µM (inactive) | > 100 µM (inactive) | > 100 µM (inactive) | > 100 µM (inactive)
Cn1nc(-c2ccccc2)c(C(=O)/C=C/c2ccc(F)cc2)c(N2CCOCC2)c1=O | – | 25.7 µM (inactive) | 17.3 µM (inactive) | – | – | > 10 µM (inactive) | 16 µM (inactive) | 28.6 µM (inactive) | – | – | 18.2 µM (inactive) | 14.8 µM (inactive) | 21.3 µM (inactive) | 23.6 µM | 18.2 µM (inactive) | 22.5 µM (inactive) | 4.21 µM (inactive) | 17.7 µM (inactive)
COc1ccc2cccc(C(=O)c3ccc(C)c4c3CCC4)c2c1 | 52.4 µM (inactive) | 51.2 µM (inactive) | – | 34.3 µM (inactive) | 35.2 µM (inactive) | 31.7 µM (inactive) | 24.8 µM (inactive) | 32.3 µM (inactive) | 34.6 µM (inactive) | 85.5 µM (inactive) | 29 µM (inactive) | 19.5 µM (inactive) | 41.8 µM (inactive) | 19 µM | 53.6 µM (inactive) | 56 µM (inactive) | 37.7 µM (inactive) | 34.1 µM (inactive)
CN1C(=O)CCC2[C@@H]3CC=C4C[C@@H](O)CC[C@]4(C)C3CC[C@@]21C (stereo partly drawn) | > 100 µM (inactive) | 67.5 µM (inactive) | 45.9 µM (inactive) | 97.7 µM (inactive) | 49.5 µM (inactive) | 50.2 µM (inactive) | 94.4 µM (inactive) | > 100 µM (inactive) | > 100 µM (inactive) | 33.4 µM (inactive) | – | 13.5 µM (inactive) | > 100 µM (inactive) | 71.6 µM | 27.2 µM (inactive) | 42.4 µM (inactive) | 33.5 µM (inactive) | > 100 µM (inactive)
O=c1c2c([nH]c3cc4c(cc13)OCO4)-c1ccccc1C2 | 27.2 µM (inactive) | 29.6 µM (inactive) | 18.1 µM (inactive) | – | 22.5 µM (inactive) | 39 µM (inactive) | 28.1 µM (inactive) | 10.7 µM (inactive) | 13.5 µM (inactive) | 33.3 µM (inactive) | 17 µM (inactive) | 16 µM (inactive) | 35.2 µM (inactive) | 19.3 µM | 26.9 µM (inactive) | 19.4 µM (inactive) | 15.6 µM (inactive) | –
O=C(N[C@H]1CC2(C=C(I)C(=O)C(I)=C2)OC1=O)OCc1ccccc1 | 22.7 µM (inactive) | 14.3 µM (inactive) | 17.7 µM (inactive) | 18.9 µM (inactive) | 17.3 µM (inactive) | 20.4 µM (inactive) | 20.8 µM (inactive) | 17.7 µM (inactive) | – | 18.4 µM (inactive) | 14.5 µM (inactive) | 27 µM (inactive) | – | 20.9 µM | 19.5 µM (inactive) | 18.5 µM (inactive) | 15.9 µM (inactive) | > 100 µM (inactive)
Cc1c(C(=O)O)oc2ccc([N+](=O)[O-])cc12 | – | > 100 µM (inactive) | > 100 µM (inactive) | > 100 µM (inactive) | > 100 µM (inactive) | > 100 µM (inactive) | > 100 µM (inactive) | > 100 µM (inactive) | > 100 µM (inactive) | > 100 µM (inactive) | > 100 µM (inactive) | > 100 µM (inactive) | > 100 µM (inactive) | > 100 µM | > 100 µM (inactive) | > 100 µM (inactive) | > 100 µM (inactive) | > 100 µM (inactive)
CCOC(=O)C1=C(C)NC(=S)NC1c1ccccc1 (stereo not drawn) | > 100 µM (inactive) | > 100 µM (inactive) | > 100 µM (inactive) | > 100 µM (inactive) | > 100 µM (inactive) | > 20 µM (inactive) | > 100 µM (inactive) | > 100 µM (inactive) | > 100 µM (inactive) | 32.3 µM (inactive) | > 45 µM (inactive) | > 83.9 µM (inactive) | – | > 41.3 µM | > 100 µM (inactive) | > 100 µM (inactive) | > 59 µM (inactive) | > 100 µM (inactive)
